Test results taken from US12522597B2, “Methods and compositions for modulating splicing” (Skyhawk Therapeutics, Inc., priority 2019, dated 2026).
pEC50: −log10 of the molar value. Read-outs that look alike come from different tables or passages of the source.

Assays:
mHTT protein = mHTT protein assay (2B7-MW1, Mesoscale Discovery); format: cell-based, human; details: GM04724 (CAG 70/20) Huntington's disease patient lymphoblast cells, 48 hours, 2B7-MW1 MSD; read-out: HTT Potency - Protein EC50 mHTT (average)
Method in brief: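 GM04724 Huntington's patient lymphoblasts (CAG 70/20) were treated for 48 h at 10 μM to 0.6 nM. mHTT was quantified by 2B7-MW1 MSD immunoassay, whose signal depends on polyQ expansion and HTT fragment size. Viability was run on a parallel plate by CellTiter-Glo.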

[1] = tested on: Huntingtin (HTT) transcripts; assay: Quantitative splicing assay (HTT), qPCR; format: cell-based; details: Homo sapiens, GM04724 (CAG 70/20) Huntington's disease patient lymphoblasts, 24 h
Experimental: GM04724 (CAG 70/20) Huntington's disease patient lymphoblasts (Coriell) are plated in 96-wel v-bottom plates at 50,000 cells/well. Immediately after plating, cells are dosed with compound for 24 h at concentrations ranging from 2.5 uM to 0.15 nM (0.1% DMSO). Treated cells are lysed and cDNA synthesized using the Fast Advanced Cells-to-Ct kit (Thermofisher A35378) according to the manufacturer's instructions. 2 uL of each cDNA are used in qPCR reactions to confirm the compound-induced inclusion of a cryptic exon within intron 49 of the Huntingtin (HTT) transcripts. The qPCR reactions are prepared in 384-well plates in 10 uL volume, using TaqMan™ Fast Advanced Master Mix [ThermoFisher; 4444965] with primers and probes shown in the table below. Reactions are run in a Quant Studio 6 qPCR instrument with default settings.

MDR1 = assay: MDCK-MDR1 permeability assay (BBB penetration potential); format: in vitro ADME; details: dog; for efflux ratio at 120 min, 5 μM: MDCK-MDR1, pH 7.4, MDCK-MDR1: Efflux; for Papp A→B at 120 min, 5 μM: MDCK-MDR1, pH 7.4, MDCK-MDR1: Papp A-B; for Papp B→A at 120 min, 5 μM: MDCK-MDR1, pH 7.4, MDCK-MDR1: Papp B-A
Experimental: (§1) Each determination is performed in duplicate. […] Analytical conditions are outlined below.

[2] = tested on: MDR1-MDCK cell monolayers; assay: as above; format: in vitro ADME; details: dog, MDCK-MDR1, 120 min, 5 μM, pH 7.4
Experimental: as §1

[3] = qPCR HTTex49_50, read-out: HTT Potency - Splicing: E49-50 EC50 (average)
[4] = qPCR cryptic exon 49b inclusion, read-out: HTT Potency - Splicing: E49b EC50 (average)

SMILES | pEC50 (mHTT protein) | pEC50 [1, 3] | pEC50 [1, 4] | efflux ratio at 120 min, 5 μM (MDR1) | Papp A→B at 120 min, 5 μM (MDR1) [×10⁻⁶ cm/s] | Papp B→A at 120 min, 5 μM (MDR1) [×10⁻⁶ cm/s] | MDCK-MDR1: % Recov A-B [2] [%] | MDCK-MDR1: % Recov B-A [2] [%]
Cn1ccc(-c2ccc(-c3ccc(O[C@@H]4C[C@H]5CCC[C@H](N5)[C@@H]4F)nn3)c(O)c2)cc1=O (single isomer, unassigned) [54-ENT1] | 7.82 to 11.00 | 7.30 to 7.80 | 7.30 to 7.80 | 57 | 1.1 | 63 | 94 | 105
Cn1ccc2cc(O)c(-c3ccc(O[C@H]4C[C@]5(C)CC[C@@](C)(N5)[C@H]4F)nn3)cc2c1=O (single isomer, unassigned) [130-ENT1] | 7.82 to 11.00 | 7.00 to 7.29 | 7.30 to 7.80 | 6 | 7.86 | 43.7 | 78 | 80
Oc1cc(-c2cn[nH]c2)c(F)cc1-c1ccc(O[C@@H]2C[C@H]3CCC[C@H](N3)[C@@H]2F)nn1 (single isomer, unassigned) [56-ENT1] | 7.82 to 11.00 | 7.82 to 11.00 | 7.82 to 11.00 | 15 | 2.63 | 39 | 55 | 74
C[C@@]12CC[C@@](C)(N1)[C@@H](F)[C@@H](Oc1ccc(-c3ccc(-c4cn[nH]c4)cc3O)nn1)C2 (single isomer, unassigned) [2-ENT2] | 7.82 to 11.00 | 7.82 to 11.00 | 7.82 to 11.00 | 3 | 14.5 | 46.4 | 90 | 87
Oc1cc(-c2cn[nH]c2)ccc1-c1ccc(O[C@H]2C[C@@H]3CC[C@@H](N3)[C@H]2F)nn1 (single isomer, unassigned) [42-ENT1] | 7.82 to 11.00 | 7.82 to 11.00 | 7.82 to 11.00 | 12 | 3.39 | 42.4 | 75 | 84
Cn1ccc2cc(-c3ccc(O[C@@H]4C[C@@]5(C)CC[C@](C)(N5)[C@@H]4F)nn3)c(O)cc2c1=O (single isomer, unassigned) [127-ENT2] | 7.30 to 7.80 | 7.00 to 7.29 | 7.30 to 7.80 | 6 | 9.29 | 55.3 | 89 | 103
Cn1ccc(-c2ccc(-c3ccc(O[C@@H]4C[C@@]5(C)CCC[C@](C)(N5)[C@@H]4F)nn3)c(O)c2)cc1=O (single isomer, unassigned) [149-ENT2] | 7.30 to 7.80 | 7.30 to 7.80 | 7.30 to 7.80 | 24 | 1.94 | 45.7 | 76 | 73
O=c1cc(-c2ccc(-c3ccc(O[C@@H]4C[C@H]5CCC[C@H](N5)[C@@H]4F)nn3)c(O)c2)cc[nH]1 (single isomer, unassigned) [53-ENT1] | 6.30 to 7.00 | 6.30 to 7.00 | 6.30 to 7.00 | 103 | 0.22 | 22.2 | 91 | 90
Cn1cc(-c2cc(O)c(-c3ccc(O[C@@H]4C[C@H]5CCC[C@H](N5)[C@@H]4F)nn3)c(F)c2)cn1 (single isomer, unassigned) [118-ENT1] | 7.00 to 7.29 | 7.00 to 7.29 | 7.00 to 7.29 | 5 | 6.21 | 33.3 | 52 | 80
Cn1cc(-c2ccc(-c3ccc(O[C@@H]4C[C@H]5CCC[C@H](N5)[C@@H]4F)nn3)c(O)c2F)cn1 (single isomer, unassigned) [119-ENT1] | 7.30 to 7.80 | 7.30 to 7.80 | 7.30 to 7.80 | 10 | 3.4 | 33 | 56 | 80
Oc1cc(-c2ccn3ccnc3c2)ccc1-c1ccc(O[C@H]2C[C@@H]3CCC[C@@H](N3)[C@H]2F)nn1 (single isomer, unassigned) [83-ENT2] | 6.30 to 7.00 | 5.00 to 6.30 | 5.00 to 6.30 | 12 | 0.77 | 9.61 | 47 | 66
Oc1cc(-c2cnccn2)ccc1-c1ccc(O[C@H]2C[C@@H]3CCC[C@@H](N3)[C@H]2F)nn1 (single isomer, unassigned) [79-ENT2] | 6.30 to 7.00 | 7.00 to 7.29 | 7.00 to 7.29 | 3 | 9.52 | 25.8 | 74 | 82
Oc1cc(-c2cn[nH]c2)ccc1-c1ccc(O[C@@H]2C[C@H]3CC(F)(F)[C@@H](C2)N3)nn1 (single isomer, unassigned) [46-ENT2] | 6.30 to 7.00 | 6.30 to 7.00 | 6.30 to 7.00 | 3 | 14.2 | 43.2 | 72 | 83
Oc1cc(-c2cn[nH]c2)ccc1-c1ccc(O[C@H]2C[C@@H]3CCC[C@@H](N3)[C@@H]2F)nn1 (single isomer, unassigned) [41-ENT1] | 7.82 to 11.00 | 7.82 to 11.00 | 7.82 to 11.00 | 8 | 4.33 | 34.7 | 71 | 86
Cn1cc(-c2ccc(-c3ccc(O[C@H]4C[C@H]5CCC[C@H](N5)[C@@H]4F)nn3)c(O)c2)cn1 (single isomer, unassigned) [121-ENT1] | 5.00 to 6.30 | 5.00 to 6.30 | 5.00 to 6.30 | 5 | 11 | 50.3 | 66 | 73
Oc1cc(-c2cn[nH]c2)ccc1-c1ccc(O[C@@H]2C[C@H]3C[C@H](F)C[C@@H](C2)N3)nn1 [compound 113, 2-(6-(((1R,3r,5S,7s)-7-fluoro-9-azabicyclo[3.3.1]nonan-3-yl)oxy)pyridazin-3-yl)-5-(1H-pyrazol-4-yl)phenol] | 7.82 to 11.00 | 7.82 to 11.00 | 7.82 to 11.00 | 54 | 1.01 | 54.2 | 86 | 88
Cn1cc(-c2cc(O)c(-c3ccc(O[C@@H]4C[C@H]5CCC[C@H](N5)[C@@H]4F)nn3)cc2F)cn1 (single isomer, unassigned) [82-ENT1] | 7.82 to 11.00 | 7.82 to 11.00 | 7.82 to 11.00 | 4 | 4.12 | 16.8 | 45 | 72
Oc1cc(-c2cn[nH]c2)ccc1-c1ccc(O[C@@H]2C[C@H]3COC[C@H](N3)[C@@H]2F)nn1 (single isomer, unassigned) [123-ENT1] | 6.30 to 7.00 | 6.30 to 7.00 | 6.30 to 7.00 | 14 | 6.22 | 87.8 | 86 | 90
COc1cc(-c2ccc(-c3ccc(O[C@@H]4C[C@H]5CCC[C@H](N5)[C@@H]4F)nn3)c(O)c2)cnn1 (single isomer, unassigned) [76-ENT1] | 7.30 to 7.80 | 7.82 to 11.00 | 7.82 to 11.00 | 8 | 3.83 | 32.3 | 64 | 70
COc1cc(-c2ccc(-c3ccc(O[C@H]4C[C@]5(C)CC[C@@](C)(N5)[C@H]4F)nn3)c(O)c2)cnn1 (single isomer, unassigned) [157-ENT2] | 7.30 to 7.80 | 7.30 to 7.80 | 7.30 to 7.80 | 5 | 6.79 | 36.1 | 82 | 81
